Source: patent US12281116B2, “HTT modulators for treating Huntington's disease” (CHDI Foundation, Inc., priority 2021, dated 2025)

System: tHTT (total HTT protein)
Experiment: Time-resolved FRET (HTRF) assay: Q48-Huntingtin and total-Huntingtin detection in GEN020 hESC lysates
Format: cell-based
Conditions: tHTT activity; human embryonic stem cells GEN020 (mutant 48 Q repeat allele); test compounds 48 hours; read-out: HTT Lowering Activity (HTRF)
Experimental: Time-resolved FRET assay: Q48-Huntingtin and total-Huntington detection Detection of endogenous HTT protein in cell lysates was performed using a protocol adapted from Weiss et al. See Weiss A et al. (2009). Single-step detection of mutant huntingtin in animal and human tissues: a bioassay for Huntington's disease. Anal. Biochem. 395(1): 8-15.
The multiplex assay was performed in human embryonic stem cells (GEN020 hESCs with mutant 48 Q repeat allele) which have been derived by Genea Biocells from human blastocysts of HD donors. Bradley C K et al. (2011). Derivation of Huntington's disease-affected human embryonic stem cell lines, Stem Cells Dev. 2011 March; 20(3):495-502. Cells were plated into 384-well collagen coated plates (10,000 cells per well) and left to adhere for 24 hours, test compounds were then added for 48 hours (37° C., 5% CO2), cells were then lysed, and the lysate was transferred to a black 384-well assay plate.
The assay plate included a combination of HTRF labelled monoclonal antibodies added to recognize discreet areas of the HTT protein, the Tb “donor” antibody (2B7-Tb: 0.2 ng/well) recognizes a sequence at the N-terminus of the protein, an Alexa488 “acceptor 1” antibody (MW1-Alexa488: 30 ng/well) recognizes an area in the polyQ region, whereas a d2 “acceptor 2” antibody (MAB2166-d2: 6 ng/well) recognizes a sequence beyond the polyQ region. These detection reagents were incubated with the cell lysate at room temperature for 4-6 hours before having their fluorescence quantified at 615 nm (donor) and 535 nm and 665 nm (acceptor 1 and 2 respectively). The donor/acceptor ratio between these signals indicated the relative quantities of mHTT and tHTT.
Results for various compounds described herein are provided in the Tables below. tHTT activity in this assay is categorized as 10-20 μM (−); 1-10 μM (+); 0.5-1 μM (++); 0.1-0.5 μM (+++); <0.1 μM (++++).

Work on `Cc1cn2cc(NC(=O)c3cnc(N4CCC(C)(N)C4)cn3)cc(F)c2n1` (racemic) [Example 42, 5-(3-Amino-3-methyl-pyrrolidin-1-yl)-N-(8-fluoro-2-methyl-imidazo[1,2-a]pyridin-6-yl)pyrazine-2-carboxamide] yielded an IC50 of 100 to 500 nM.

For `Cc1cn2cc(NC(=O)c3cnc(N4CCC(N(C)C)C4=O)cn3)cc(F)c2n1` (single isomer, unassigned) [Example 38, (S*)-5-(3-(dimethylamino)-2-oxopyrrolidin-1-yl)-N-(8-fluoro-2-methylimidazo[1,2-a]pyridin-6-yl)pyrazine-2-carboxamide], the IC50 was 500 to 1000 nM.

In the case of `Cc1cn2cc(NC(=O)c3cnc(N4CCC(N(C)C)C4=O)cn3)cc(F)c2n1` (single isomer, unassigned) [Example 39, (R*)-5-(3-(dimethylamino)-2-oxopyrrolidin-1-yl)-N-(8-fluoro-2-methylimidazo[1,2-a]pyridin-6-yl)pyrazine-2-carboxamide], the IC50 is reported as 500 to 1000 nM.

Work on `Cc1cn2cc(NC(=O)c3cnc(N4CC(CNC5CC5)CC4=O)cn3)cc(F)c2n1` (single isomer, unassigned) [Example 40, (R*)-5-(4-((cyclopropylamino)methyl)-2-oxopyrrolidin-1-yl)-N-(8-fluoro-2-methylimidazo[1,2-a]pyridin-6-yl)pyrazine-2-carboxamide] yielded an IC50 of 100 to 500 nM.

For `Cc1cn2cc(NC(=O)c3cnc(N4CC(CNC5CC5)CC4=O)cn3)cc(F)c2n1` (single isomer, unassigned) [Example 41, (S*)-5-(4-((cyclopropylamino)methyl)-2-oxopyrrolidin-1-yl)-N-(8-fluoro-2-methylimidazo[1,2-a]pyridin-6-yl)pyrazine-2-carboxamide], the IC50 was 500 to 1000 nM.

In the case of `Cn1cc2cc(NC(=O)c3cnc(N4CC[C@@H](NC5CC5)C4)cn3)c(OC3CCOCC3)cc2n1` [Example 2, (R)-5-(3-(cyclopropylamino)pyrrolidin-1-yl)-N-(2-methyl-6-((tetrahydro-2H-pyran-4-yl)oxy)-2H-indazol-5-yl)pyrazine-2-carboxamide], the IC50 is reported as 500 to 1000 nM.

In the case of `CC#CCOc1cc2nn(C)cc2cc1NC(=O)c1cnc(N2CC[C@@H](NC3CC3)C2)cn1` [Example 3, (R)-N-(6-(but-2-yn-1-yloxy)-2-methyl-2H-indazol-5-yl)-5-(3-(cyclopropylamino)pyrrolidin-1-yl)pyrazine-2-carboxamide], the IC50 is reported as 100 to 500 nM.

`C#CCOc1cc2nn(C)cc2cc1NC(=O)c1cnc(N2CC[C@@H](NC)C2)cn1` [Example 4, (R)-N-(2-methyl-6-(prop-2-yn-1-yloxy)-2H-indazol-5-yl)-5-(3-(methylamino)pyrrolidin-1-yl)pyrazine-2-carboxamide] gave an IC50 of under 100 nM.

In the case of `C#CCOc1cc2nn(C)cc2cc1NC(=O)c1cnc(N2CC[C@@H](NC3CC3)C2)cn1` [Example 5, (R)-5-(3-(cyclopropylamino)pyrrolidin-1-yl)-N-(2-methyl-6-(prop-2-yn-1-yloxy)-2H-indazol-5-yl)pyrazine-2-carboxamide], the IC50 is reported as 100 to 500 nM.

In the case of `Cn1cc2cc(NC(=O)c3cnc(N4CC[C@@H](NC5CC5)C4)cn3)c(OCC3CCOCC3)cc2n1` [Example 6, (R)-5-(3-(cyclopropylamino)pyrrolidin-1-yl)-N-(2-methyl-6-((tetrahydro-2H-pyran-4-yl)methoxy)-2H-indazol-5-yl)pyrazine-2-carboxamide], the IC50 is reported as 500 to 1000 nM.

`Cn1cc2cc(NC(=O)c3cnc(N4CC[C@@H](NC5CC5)C4)cn3)c(OCC#N)cc2n1` [Example 7, (R)-N-(6-(cyanomethoxy)-2-methyl-2H-indazol-5-yl)-5-(3-(cyclopropylamino)pyrrolidin-1-yl)pyrazine-2-carboxamide] gave an IC50 of 100 to 500 nM.

`CN[C@@H]1CCN(c2cnc(C(=O)Nc3cc4cn(C)nc4cc3OCc3ccccc3)cn2)C1` [Example 8, (R)-N-(6-(benzyloxy)-2-methyl-2H-indazol-5-yl)-5-(3-(methylamino)pyrrolidin-1-yl)pyrazine-2-carboxamide] was tested, and the IC50 was under 100 nM.
